The record followed here is publication PMC10294832, “Investigation of Naphthyl–Polyamine Conjugates as Antimicrobials and Antibiotic Enhancers” (Antibiotics, 2023).

Like-named read-outs stand apart in the source and are kept apart here.

In series [1] the test system is S. aureus (ATCC 25,923 or ATCC 29213). As to the kind of experiment: Antimicrobial MIC, S. aureus. Format: cell-based, Staphylococcus aureus. To be noted: Staphylococcus aureus, mean (n = 3). Here is the method:
(§1) The susceptibility of bacterial strains S. aureus (ATCC 25,923 or 29213), E. coli (ATCC 25922), and P. aeruginosa (ATCC 27853) to antibiotics and compounds was determined according to previously reported protocols. Additional antimicrobial evaluation against MRSA (ATCC 43300), Klebsiella pneumoniae (ATCC 700603), Acinetobacter baumannii (ATCC 19606), Candida albicans (ATCC 90028), and Cryptococcus neoformans (ATCC 208821) was undertaken at the Community for Open Antimicrobial Drug Discovery at The University of Queensland (Australia) according to their standard protocols as reported previously.

The next series relates to MRSA (ATCC 43300). The experiment in a line: Antimicrobial MIC, MRSA. Format: cell-based, methicillin-resistant Staphylococcus aureus. The note with it: MRSA (ATCC 43300), mean (n = 2), read-out: MIC MRSA. As to the method: as §1
The subject of series [2] is P. aeruginosa (PAO1 or ATCC 27853). As to the kind of experiment: Antimicrobial MIC, P. aeruginosa. It is filed as cell-based. To be noted: Pseudomonas aeruginosa; P. aeruginosa (PAO1 or ATCC 27853); mean (n = 3); read-out: MIC P. a. Here is the method:
as §1

In series [3] the test system is E. coli (ATCC 25922). As to the kind of experiment: Antimicrobial MIC, E. coli. It is filed as cell-based, Escherichia coli. The note with it: Escherichia coli, ATCC25922, E. coli (ATCC 25922); mean (n = 2). Here is the method:
as §1

In series [4] the test system is K. pneumoniae (ATCC 700603). The experiment in a line: Antimicrobial MIC, K. pneumoniae. It is filed as cell-based. The note with it: Klebsiella pneumoniae, ATCC700603, mean (n = 2). Here is the method: as §1
Series [5] deals with A. baumannii (ATCC 19606). The experiment in a line: Antimicrobial MIC, A. baumannii. The note with it: mean (n = 2). Format: cell-based, Acinetobacter baumannii. As to the method:
as §1

The next series concerns C. albicans (ATCC 90028). The experiment in a line: Antifungal MIC, C. albicans. Format: cell-based. To be noted: Candida albicans, ATCC90028, mean (n = 2). As to the method: as §1
The subject of series [6] is C. neoformans (ATCC 208821). The experiment in a line: Antifungal MIC, C. neoformans. It is filed as cell-based, Cryptococcus neoformans. To be noted: mean (n = 2). As to the method:
as §1

A short description of the next series: Cytotoxicity assay. It is filed as cell-based, human. The note with it: human, HEK293 human embryonic kidney cells, concentration at 50% cytotoxicity on HEK293 cells; mean (n = 2). As to the method: Cytotoxicity assays were conducted using the protocols previously reported.
In another series the test system is human red blood cells. The experiment in a line: Hemolytic assay. It is filed as cell-based. The note with it: concentration at 10% hemolytic activity on human red blood cells; mean (n = 2). Here is the method:
Hemolysis assays were conducted using the protocols previously reported.

Series [7] relates to P. aeruginosa (ATCC 27853). The experiment in a line: Enhancement of doxycycline activity. To be noted: for Dox/P.a: concentration required to restore doxycycline activity (combination MIC): doxycycline fixed at 4.5 µM (2 µg/mL), P. aeruginosa (ATCC 27853); for Dox/P.a fold change: ratio between intrinsic MIC of test compound and combination MIC, doxycycline 4.5 µM, P. aeruginosa. It is filed as cell-based, Pseudomonas aeruginosa.

Series [8] deals with E. coli (ATCC 25922). The experiment in a line: Enhancement of erythromycin activity. Format: cell-based, Escherichia coli. To be noted: for Eryth/E.c: concentration required to restore erythromycin activity (combination MIC): erythromycin fixed at 10.9 µM (8 µg/mL), E. coli (ATCC 25922); for Eryth/E.c fold change: ratio between intrinsic MIC of test compound and combination MIC, erythromycin 10.9 µM, E. coli. As to the method:
Restoring enhancer concentrations were determined using previously reported protocols.

Where [9] appears, read: Acinetobacter baumannii, ATCC19606, A. baumannii (ATCC 19606).
Where [10] appears, read: Cryptococcus neoformans, ATCC208821, C. neoformans (ATCC 208821).

The MIC is the lowest concentration found to suppress growth. By IC50 is commonly meant the concentration that inhibits the measured activity by half. The low end stands for greater potency in that assay, the high end for weaker potency in that assay. As for `O=C(NCCCNCCCCCCCCCCNCCCNC(=O)c1ccc2ccccc2c1)c1ccc2ccccc2c1.O=C(O)C(F)(F)F.O=C(O)C(F)(F)F` [Compound 19e, N^1,N^10-Bis(3-(2-naphthamido)propyl)decane-1,10-diaminium 2,2,2-trifluoroacetate], the MIC turned out to be 30 µM in [1]; 1.22 µM with MRSA (ATCC 43300) (Staphylococcus aureus); 608 µM in series [2]; 122 µM in the series with E. coli (ATCC 25922) [3]; 38.9 µM in [4]; 38.9 µM in series [5] (setting [9]). The MIC in the series on C. albicans (ATCC 90028) was determined as 38.9 µM; in [6] (setting [10]), 4.86 µM. In the series “Cytotoxicity assay”, the midpoint of inhibition, the IC50, lay at 4.75 µM. For the same molecule, the “Hemolysis HC10” value in the series on human red blood cells was over 38.9 µM. Also, the “Dox/P.a: concentration required to restore doxycycline activity (combination MIC)” value (from here on “Dox/P.a: concentration required”) in series [7] stood at 608 µM. The Dox/P.a fold change in series [7] is recorded as 1 fold. Moreover, the “Eryth/E.c: concentration required to restore erythromycin activity (combination MIC)” value (“Eryth/E.c: concentration required” for short) with E. coli (ATCC 25922) [8] worked out at 60.8 µM. For the same molecule, the Eryth/E.c fold change with E. coli (ATCC 25922) [8] is 2 fold.

As to `O=C(NCCCNCCCCCCCCCCCCNCCCNC(=O)c1ccc2ccccc2c1)c1ccc2ccccc2c1.O=C(O)C(F)(F)F.O=C(O)C(F)(F)F` [Compound 19f, N^1,N^12-Bis(3-(2-naphthamido)propyl)dodecane-1,12-diaminium 2,2,2-trifluoroacetate], the MIC in series [1] was 100 µM; in the series on MRSA (ATCC 43300), 0.294 µM; in the series with MRSA (ATCC 43300) (Staphylococcus aureus), 0.29 µM; in [2], 300 µM; in the series with E. coli (ATCC 25922) [3], 300 µM; in [4], over 37.6 µM. Further, the MIC in series [5] (A. baumannii (ATCC 19606)) was 0.294 µM; in series [5] (setting [9]), 0.29 µM; in the series with C. albicans (ATCC 90028), over 37.6 µM; in series [6] (C. neoformans (ATCC 208821)), 0.294 µM; in [6] (setting [10]), 0.29 µM. This molecule also gave an IC50 in the series “Cytotoxicity assay” of over 37.6 µM. The “Hemolysis HC10” value in the series with human red blood cells is recorded as over 37.6 µM. Besides, the “Dox/P.a: concentration required” value in series [7] came out at 300 µM. The Dox/P.a fold change in series [7] is recorded as 1 fold. Further, the “Eryth/E.c: concentration required” value in the series on E. coli (ATCC 25922) [8] is 300 µM. The Eryth/E.c fold change in the series on E. coli (ATCC 25922) [8] is listed as 1 fold.

Regarding `O=C(CCC(=O)Nc1ccc2ccccc2c1)NCCCNCCCCCCNCCCNC(=O)CCC(=O)Nc1ccc2ccccc2c1.O=C(O)C(F)(F)F.O=C(O)C(F)(F)F` [Compound 20b, N^1,N^6-Bis(3-(4-(naphthalen-2-ylamino)-4-oxobutanamido)propyl)hexane-1,6-diaminium 2,2,2-trifluoroacetate], the MIC is over 200 µM in [1]; over 35.2 µM in the series with MRSA (ATCC 43300) (Staphylococcus aureus); over 200 µM in series [2]; 50 µM against E. coli (ATCC 25922) [3]; over 35.2 µM in [4]; over 35.2 µM in [5] (setting [9]). In addition, the MIC against C. albicans (ATCC 90028) was over 35.2 µM; in series [6] (setting [10]) it was 35.2 µM. The molecule further showed a half-maximal inhibitory concentration (IC50) in the series “Cytotoxicity assay” of over 35.2 µM. For the same molecule, the “Hemolysis HC10” value with human red blood cells is on record as over 35.2 µM. In series [7], the “Dox/P.a: concentration required” value is 25 µM. The Dox/P.a fold change in [7] is on record as over 8 fold. Also, the “Eryth/E.c: concentration required” value in the series on E. coli (ATCC 25922) [8] worked out at 50 µM. In the series with E. coli (ATCC 25922) [8], the Eryth/E.c fold change was 1 fold.

For `O=C(CCC(=O)Nc1ccc2ccccc2c1)NCCCNCCCCCCCNCCCNC(=O)CCC(=O)Nc1ccc2ccccc2c1.O=C(O)C(F)(F)F.O=C(O)C(F)(F)F` [Compound 20c, N^1,N^7-Bis(3-(4-(naphthalen-2-ylamino)-4-oxobutanamido)propyl)heptane-1,7-diaminium 2,2,2-trifluoroacetate], the MIC was 25 µM in series [1]; 2.2 µM with MRSA (ATCC 43300) (Staphylococcus aureus); over 200 µM in series [2]; 25 µM with E. coli (ATCC 25922) [3]; over 34.7 µM in series [4]; over 34.7 µM in series [5] (setting [9]). Moreover, the results for the MIC (against C. albicans (ATCC 90028); in series [6] (setting [10])) were over 34.7 µM and at most 0.27 µM, respectively. Also, the IC50 in “Cytotoxicity assay” was over 34.7 µM. Further, the “Hemolysis HC10” value in the series on human red blood cells is over 34.7 µM. Further, the “Dox/P.a: concentration required” value in series [7] is 6.25 µM. Moreover, the “Eryth/E.c: concentration required” value in the series on E. coli (ATCC 25922) [8] came out at 12.5 µM. Further, the Eryth/E.c fold change in the series on E. coli (ATCC 25922) [8] was 2 fold.
